No end group written: not given here.

Common to all, as to assay type: biochemical
One assay deals with T1, β4Gal-T2 (Homo sapiens, UniProt O60909).
T1 construct: An expression construct designed to encode amino acid residues 31-372 of β4Gal-T2 was prepared by RT-PCR; secretion signal of vector pAcGP67 (gp67 leader; own knowledge of the vector) (N); made in house; host or cells: Sf9 (Spodoptera frugiperda) cells, baculovirus; unpurified culture supernatant
T1 sequence (O60909 31-372): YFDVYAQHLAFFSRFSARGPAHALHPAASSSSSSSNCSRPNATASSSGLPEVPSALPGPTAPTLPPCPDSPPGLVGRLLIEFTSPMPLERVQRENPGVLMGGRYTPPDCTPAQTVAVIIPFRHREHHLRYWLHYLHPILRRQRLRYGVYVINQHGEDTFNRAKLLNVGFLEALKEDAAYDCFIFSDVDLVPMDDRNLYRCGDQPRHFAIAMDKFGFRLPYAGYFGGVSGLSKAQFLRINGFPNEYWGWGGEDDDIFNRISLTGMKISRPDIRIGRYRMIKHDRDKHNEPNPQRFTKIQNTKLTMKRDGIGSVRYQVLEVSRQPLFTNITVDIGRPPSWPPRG
The assay can be described thus: β4Gal-T2 galactosyltransferase activity assay (soluble enzyme, media of infected Sf9 cells). The note with it: for inhibition of β4Gal-T2 by high acceptor substrate concentrations: FIGS. 5A and 5B, to higher degree than bovine milk β4Gal-transferase and β4Gal-T3; for donor substrate utilisation by β4Gal-T2 (in words): with the acceptor substrates tested. The source says: (§1) The PCR product were cloned into the BamHI site of pAcGP67 (Pharmingen), and the construct sequenced to verify correct insertion and sequence. The plasmid pAcGP67-β4Gal-T2-sol was co-transfected with Baculo-Goldä DNA (Pharmingen) as described previously (Bennett et al., 1996). Recombinant Baculo-virus were obtained after two successive amplifications in Sf9 cells grown in serum-containing medium, and titres of virus were estimated by titration in 24-well plates with monitoring of enzyme activities. Controls included pAcGP67-β4Gal-T3-sol (Almeida et al., 1997) and pAcGP67-GalNAc-T3-sol (Bennett et al., 1996).
(§2) Standard assays were performed in […] total reaction mixtures containing 25 mM Tris (pH 7.5), 10 mM MnCl2, 0.25% Triton X-100, […] UDP-[^14C]-Gal (2,300 cpm/nmol) (Amersham), and varying concentration of acceptor substrates (Sigma) (see Table I for structures). The soluble constructs were assayed with […] of culture supernatant from infected cells, whereas the full length construct was assayed with 1% Triton X-100 homogenates of washed cells. Bovine milk P1,4Gal-transferase (Sigma) was used as control.
Reaction products were quantified by Dowex-1 chromatography. […] The transfer of Gal was evaluated after precipitation by filtration through Whatman GF/C glass fiber filters.

A further assay addresses T2, β4Gal-T3 (Homo sapiens, UniProt O60512).
T2 construct: media from Sf9 cells expressing secreted forms of either β4Gal-T2 or -T3 were used as enzyme sources; secretion signal of vector pAcGP67 (gp67 leader; own knowledge of the vector) (N); made in house; host or cells: Sf9 cells, baculovirus; unpurified culture supernatant
In words: β4Gal-T3 galactosyltransferase activity assay (soluble enzyme, Sf9 media). How it is done:
as §1, with “An expression construct designed to encode amino acid residues 31-372 of β4Gal-T2 was prepared by RT-PCR with mRNA from Colo205 cell line, using the primer pair EBER100FOR (5′-[…]; SEQ ID NO: 9) and EBER114 (5′-[…]; SEQ ID NO: 10) with BamH1 restriction sites (FIG. 2). The PCR” for “The PCR”
as §2
(§3) Reaction products were quantified by Dowex-1 chromatography. Assays with hen egg Ovalbumin (Sigma), asialo-fetuin (Sigma), and asialo-agalacto-fetuin (Sigma, treated with bgalactosidase) were performed with the standard reaction mixture modified to contain […] UDP-Gal, 54 mM NaCl, and 0.5 mg Ovalbumin. The transfer of Gal was evaluated after precipitation by filtration through Whatman GF/C glass fiber filters.

Another assay concerns the target T3, Bovine milk β4Gal-T (Bos taurus, UniProt P08037).
T3 construct: Purified bovine milk enzyme; purchased Sigma; host or cells: bovine milk
T3 sequence (P08037 79-402 limits assumed): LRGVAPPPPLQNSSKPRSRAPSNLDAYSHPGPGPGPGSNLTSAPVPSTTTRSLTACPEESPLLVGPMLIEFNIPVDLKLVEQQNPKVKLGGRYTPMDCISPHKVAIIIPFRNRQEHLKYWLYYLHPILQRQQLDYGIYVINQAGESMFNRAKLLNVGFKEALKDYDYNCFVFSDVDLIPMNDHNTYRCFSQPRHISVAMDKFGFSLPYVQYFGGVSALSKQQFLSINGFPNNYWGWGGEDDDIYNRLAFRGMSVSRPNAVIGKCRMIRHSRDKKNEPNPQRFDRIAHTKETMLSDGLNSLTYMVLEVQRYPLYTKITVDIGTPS
In words: Bovine milk β4Gal-transferase activity assay (control enzyme). How it is done: as §2, §3

[1] abbreviates: substrate concentration 3 mM, media of infected Sf9 cells, background subtracted.
Where [2] appears, read: substrate concentration 1 mM, media of infected Sf9 cells, background subtracted.
Where [3] appears, read: substrate concentration 9 mM, media of infected Sf9 cells, background subtracted.

T2 sequence (O60512 32-393 limits assumed): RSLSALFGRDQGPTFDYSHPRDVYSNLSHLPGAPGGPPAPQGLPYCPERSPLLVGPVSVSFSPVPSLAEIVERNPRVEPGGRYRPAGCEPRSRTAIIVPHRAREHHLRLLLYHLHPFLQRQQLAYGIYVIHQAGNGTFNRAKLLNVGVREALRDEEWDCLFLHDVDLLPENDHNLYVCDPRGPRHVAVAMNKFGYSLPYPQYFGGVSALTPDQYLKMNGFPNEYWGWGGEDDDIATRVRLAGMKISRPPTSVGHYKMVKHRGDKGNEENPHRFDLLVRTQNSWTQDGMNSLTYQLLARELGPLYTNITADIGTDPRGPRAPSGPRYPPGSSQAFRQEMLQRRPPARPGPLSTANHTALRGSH

Regarding `Cc1cc(=O)oc2cc(O[C@@H]3O[C@H](CO)[C@H](O)[C@H](O)[C@H]3O)ccc12` [4-Me-lumb-β-D-Gal], the “β4Gal-T2 activity with acceptor substrate” value on β4Gal-T2 (setting [1]) was found to be 0.0 nmol/min/mL.
Same read-out and setting: in the case of Bz-*-D-GalNAc it was 0.0 nmol/min/mL.
As to `CC(=O)N[C@H]1[C@@H](Oc2ccccc2[N+](=O)[O-])O[C@H](CO)[C@@H](O)[C@@H]1O` [o-Nph-α-D-GlcNAc], the “β4Gal-T2 activity with acceptor substrate” value on β4Gal-T2 (setting [2]) is 0.4 nmol/min/mL; on β4Gal-T2 (setting [1]), 0.8 nmol/min/mL; on β4Gal-T2 (setting [3]) it was 1.5 nmol/min/mL.
Consider `CC(=O)N[C@H]1[C@H](Oc2ccc([N+](=O)[O-])cc2)O[C@H](CO)[C@@H](O)[C@@H]1O` [p-Nph-β-D-GlcNAc], for which the “β4Gal-T2 activity with acceptor substrate” value was 3.0 nmol/min/mL on β4Gal-T2 (setting [2]), 2.3 nmol/min/mL on β4Gal-T2 (setting [1]) and 0.9 nmol/min/mL at β4Gal-T2 (setting [3]).
Consider `O=[N+]([O-])c1ccccc1O[C@@H]1O[C@H](CO)[C@H](O)[C@H](O)[C@H]1O` [o-Nph-β-D-Gal], for which the “β4Gal-T2 activity with acceptor substrate” value on β4Gal-T2 (setting [1]) was found to be 0.0 nmol/min/mL.
The term Km denotes the concentration of substrate that gives half-maximal velocity. For `CC(=O)N[C@H]1[C@H](OCc2ccccc2)O[C@H](CO)[C@@H](O)[C@@H]1O` [Bz-β-D-GlcNAc], the “inhibition of β4Gal-T2 by high acceptor substrate concentrations” value against β4Gal-T2 is on record as “inhibited at high concentrations”. Further, the “β4Gal-T2 activity with acceptor substrate” value amounted to 6.8 nmol/min/mL on β4Gal-T2 (setting [2]), 3.6 nmol/min/mL at β4Gal-T2 (setting [1]), 1.5 nmol/min/mL on β4Gal-T2 (setting [3]) and 3.5 nmol/min/mL on β4Gal-T2 (β-D-GlcNAc-1-Bz at 0.25 mM). On β4Gal-T2 (β4Gal-T2, read-out: apparent Km for acceptor substrate), the Km was determined as 160 µM. Also, the “β4Gal-T3 activity with acceptor substrate” value (from here on “β4Gal-T3 activity”) on β4Gal-T3 (β-D-GlcNAc-1-Bz at 2 mM) came out at 3.9 nmol/min/mL. Also, the “Bovine milk β4Gal-T activity with acceptor substrate” value on Bovine milk β4Gal-T (β-D-GlcNAc-1-Bz at 0.625 mM) was found to be 3.4 nmol/min/µg.
Consider `CC(=O)N[C@H]1[C@H](Oc2ccc3c(C)cc(=O)oc3c2)O[C@H](CO)[C@@H](O)[C@@H]1O` [4-Me-lumb-β-D-GlcNAc], for which the “β4Gal-T2 activity with acceptor substrate” value on β4Gal-T2 (setting [2]) was determined as 0.8 nmol/min/mL; on β4Gal-T2 (setting [1]), 0.6 nmol/min/mL; at β4Gal-T2 (setting [3]) it was 0.4 nmol/min/mL.
As to `CC(=O)N[C@H]1[C@H](Oc2ccc3c(C)cc(=O)oc3c2)O[C@H](CO)[C@H](O)[C@@H]1O` [4-Me-lumb-β-D-GalNAc], on β4Gal-T2 (setting [1]), the “β4Gal-T2 activity with acceptor substrate” value was 0.0 nmol/min/mL.
As for `CC(=O)N[C@H]1[C@@H](OP(=O)(O)OP(=O)(O)OC[C@H]2O[C@@H](n3ccc(=O)[nH]c3=O)[C@H](O)[C@@H]2O)O[C@H](CO)[C@@H](O)[C@@H]1O` [UDP-GlcNAc], the “donor substrate utilisation by β4Gal-T2 (in words)” value at β4Gal-T2 is on record as “did not utilise”.
Consider `CC(=O)N[C@H]1[C@@H](OP(=O)(O)OP(=O)(O)OC[C@H]2O[C@@H](n3ccc(=O)[nH]c3=O)[C@H](O)[C@@H]2O)O[C@H](CO)[C@H](O)[C@@H]1O` [UDP-GalNAc], for which the “donor substrate utilisation by β4Gal-T2 (in words)” value at β4Gal-T2 was “did not utilise”.
As for “Asialo-Fetuin: glycoprotein acceptor, asialo-fetuin (Sigma)”, the “β4Gal-T2 activity with acceptor substrate” value with β4Gal-T2 (glycoproteins at 10 mg/ml) is 0.2 nmol/min/mL. In addition, the “β4Gal-T3 activity” value in the assay with β4Gal-T3 (glycoproteins at 10 mg/ml) came out at 0.0 nmol/min/mL. Moreover, the “Bovine milk β4Gal-T activity with acceptor substrate” value with Bovine milk β4Gal-T (glycoproteins at 10 mg/ml) was determined as 0.1 nmol/min/µg.
With `CC(=O)N[C@H]1[C@H](OCc2ccccc2)O[C@H](CO)[C@H](O)[C@@H]1O` [βGalNAc-benzyl], at β4Gal-T2, the “acceptor substrate of soluble β4Gal-T2 activity (in words)” value (from here on “acceptor substrate … (in words)”) is “not”.
With `CC(=O)N[C@H]1[C@@H](OCc2ccccc2)O[C@H](CO)[C@@H](O)[C@@H]1O` [Bz-α-D-GlcNAc], the entries for the “β4Gal-T2 activity with acceptor substrate” value on β4Gal-T2 (setting [2]), at β4Gal-T2 (setting [1]) and at β4Gal-T2 (setting [3]) were 0.4 nmol/min/mL, 1.1 nmol/min/mL and 1.7 nmol/min/mL, respectively.
On to `CC(=O)N[C@H]1[C@H](Oc2ccccc2[N+](=O)[O-])O[C@H](CO)[C@H](O)[C@@H]1O` [o-Nph-β-D-GalNAc], for which, on β4Gal-T2 (setting [1]), the “β4Gal-T2 activity with acceptor substrate” value came to 0.0 nmol/min/mL.
On to “β-D-GlcNAC-1-(FAPGSYPAL) (also: O-linked β-D-GlcNAc, site not given here) [synthetic O-linked βGlcNAc-glycopeptide]”, for which the “β4Gal-T2 activity with acceptor substrate” value with β4Gal-T2 (glycopeptides at 0.1 mM) was found to be 1.3 nmol/min/mL. For the same molecule, the “β4Gal-T3 activity” value in the assay with β4Gal-T3 (glycopeptides at 0.1 mM) stood at 0.9 nmol/min/mL.
Turning to Bz-2-(2-β-D-GlcNAc)-α-D-GlcNAc, the “β4Gal-T2 activity with acceptor substrate” value is 9.9 nmol/min/mL at β4Gal-T2 (setting [2]), 2.6 nmol/min/mL at β4Gal-T2 (setting [1]) and 1.3 nmol/min/mL on β4Gal-T2 (setting [3]).
Taken in the same sequence, the figures for `CC(=O)N[C@@H]1[C@@H](O)[C@H](O)[C@@H](CO)O[C@H]1Sc1ccc([N+](=O)[O-])cc1` [p-Nph-1-thio-β-D-GlcNAc] were 1.2 nmol/min/mL, 1.6 nmol/min/mL and 0.2 nmol/min/mL.
Regarding `COC1OC(COC2OC(CO)C(O)C(O)C2NC(C)=O)C(O)C(O)C1O` [β-D-CLcNAc-(1-6)-α-D-Man-1-OMe], the “β4Gal-T2 activity with acceptor substrate” value on β4Gal-T2 (setting [2]) stood at 8.5 nmol/min/mL; at β4Gal-T2 (setting [1]), 11.3 nmol/min/mL.
For the molecule α-lactalbumin, the “effect of α-lactalbumin on activity with GlcNAc” value is on record as “inhibited” on β4Gal-T2 (β4Gal-T2, FIG. 4B) and “inhibited” on Bovine milk β4Gal-T (bovine milk enzyme, FIG. 4B). Further, the “concentration of α-lactalbumin to achieve maximum activity with Glc” value turned out to be 0.4 mg/mL on β4Gal-T2 (β4Gal-T2, glucose as acceptor) and 0.1 mg/mL at Bovine milk β4Gal-T (bovine milk enzyme, glucose as acceptor).
Take `O=C[C@H](O)[C@@H](O)[C@H](O)[C@H](O)CO` [glucose]: at β4Gal-T2, the “acceptor substrate … (in words)” value is “not an acceptor”.
In the case of `COC1O[C@H](CO)[C@H](O)[C@H](O[C@@H]2O[C@H](CO)[C@H](O)[C@H](O)[C@H]2NC(C)=O)[C@H]1O` (stereo partly drawn) [β-D-GlcNAc-(1-3)-β-D-Gal-1-OMe], the entries for the “β4Gal-T2 activity with acceptor substrate” value on β4Gal-T2 (setting [2]) and at β4Gal-T2 (setting [1]) were 5.8 nmol/min/mL and 7.7 nmol/min/mL, respectively.
As for Lc3Cer, the “acceptor substrate … (in words)” value on β4Gal-T2 is on record as “utilised”.
Take `CC(=O)N[C@H]1C(O)O[C@H](CO)[C@@H](O)[C@@H]1O` (stereo partly drawn) [D-GlcNAc]: the “inhibition of β4Gal-T2 by high acceptor substrate concentrations” value against β4Gal-T2 is recorded as “inhibited at high concentrations”. For the same molecule, the entries for the “β4Gal-T2 activity with acceptor substrate” value on β4Gal-T2 (setting [2]), at β4Gal-T2 (setting [1]) and on β4Gal-T2 (setting [3]) were 1.4 nmol/min/mL, 3.2 nmol/min/mL and 4.8 nmol/min/mL, respectively.

The values are drawn from US7374919B2 (GlycoZym ApS, priority 1998, dated 2008).
